Experimental data from patent US20060160897A1, “Topical Use of Valproic Acid for the Prevention or Treatment of Skin Disorders” (priority 2003, published 2006).

Tested on: histone H4 acetylation
Assay: Immunohistochemistry of acetylated H4 after topical application to mouse skin
Format: in vivo
Details: athymic nude mice, VPA topically applied at 3% (w/w) vs placebo; FIGS. 8 and 9
Experimental: Cryostat skin sections of 3 μm thickness were fixed in acetone at room temperature for 10 min. Before staining with anti-acetylated H4 antibody (clone T25, see above) the tissue was blocked by preincubation with F(ab′)2 fragments derived from goat anti-mouse immunoglobulin (Cappel) ( 1/10000 dilution in 50 mM Tris buffered saline, TBS) for 30 min. After rinsing with TBS for 10 min, the sections were incubated with anti-acetylated H4 antibody (clone T25) ( 1/4000 dilution in TBS) at room temperature for 1 hour. Then, the specimens were incubated with the rabbit anti-mouse serum and treated with APAAP (alkaline phosphatase anti-alkaline phosphatase) immunocomplex as described above. The positive staining was developed in red color with naphthol-AS-BI phosphate as a substrate, and New Fuchsin (Dako) as a chromogen. Pictures were taken with a digital camera connected to a light microscopy apparatus.
Skin biopsies were frozen in liquid nitrogen immediately after excision. Immunohistochemistry was then performed on 3 μm sections as described in methods. Biopsies of skin topically treated with Placebo or VPA were processed in parallel, pictures were taken with a light microscopy apparatus connected to a digital camera under the same light intensity.

CCCC(CCC)C(=O)O [VPA, 2-propyl-pentanoic acid]
histone H4 acetylation in skin cells: clear increase of histone H4 acetylation
